Source: publication PMC11396129, “Oxindole–benzothiazole hybrids as CDK2 inhibitors and anticancer agents: design, synthesis and biological evaluation” (BMC Chemistry, 2024)

Legend:
HCT-116 = experiment: NCI 60 panel growth inhibition (SRB), colon cancer; assay type: cell-based, human; details: HCT-116, 10 μM
Description: (§1) Screening of cytotoxic activity against a panel of sixty human tumor cell lines The selected compounds by NCI were evaluated for their anticancer activity in a two- stage process. […] Then, the output from the single dose screen is reported as a mean graph. […] Assay protocol. […] For a typical screening experiment, cells are inoculated into 96 well microtiter plates in 100 µL at plating densities ranging from 5000 to 40,000 cells/well depending on the doubling time of individual cell lines. […] After 24 h, two plates of each cell line are fixed in situ with TCA, to represent a measurement of the cell population for each cell line at the time of drug addition (Tz). The experimental drugs are solubilized in dimethyl sulfoxide at 400-fold the desired final maximum test concentration and stored frozen prior to use. At the time of drug addition, an aliquot of frozen concentrate is thawed and diluted to twice the desired final maximum test concentration with complete medium containing 50 µg/mL gentamicin. Additional four, 10-fold or ½ log serial dilutions are made to provide a total of five drug concentrations plus control. […] For adherent cells, the assay is terminated by the addition of cold TCA. […] The supernatant is discarded, and the plates are washed five times with tap water and air dried. […] Using the seven absorbance measurements [time zero, (Tz), control growth, (C), and test growth in the presence of drug at the five concentration levels (Ti)], the percentage growth is calculated at each of the drug concentrations levels. Percentage growth inhibition is calculated as: [(Ti Tz)/(C–Tz)] x 100 for concentrations for which Ti>/=Tz and [(Ti-Tz)/Tz] x 100 for concentrations for which Ti < Tz. Three dose response parameters are calculated for each experimental agent. […] The drug concentration resulting in total growth inhibition (TGI) is calculated from Ti = Tz. […] Values are calculated for each of these three parameters if the level of activity is reached; however, if the effect is not reached or is exceeded, the value for that parameter is expressed as greater or less than the maximum or minimum concentration tested.

KM12 = experiment: NCI 60 panel growth inhibition (SRB), colon cancer; assay type: cell-based, human; details: KM12, 10 μM
Description: as §1

SW-620 = experiment: NCI 60 panel growth inhibition (SRB), colon cancer; assay type: cell-based, human; details: SW-620, 10 μM
Description: as §1

HCC-2998 = experiment: NCI 60 panel growth inhibition (SRB), colon cancer; assay type: cell-based, human; details: HCC-2998, 10 μM
Description: as §1

[1] = tested on: NCI 60 cancer cell line panel; experiment: NCI 60 panel growth inhibition (SRB), whole panel; assay type: cell-based, human; details: mean over NCI 60 panel, 10 μM
Description: as §1

NCI-H23 = experiment: NCI 60 panel growth inhibition (SRB), non-small cell lung cancer; assay type: cell-based, human; details: NCI-H23, 10 μM
Description: as §1

HOP-62 = experiment: as above; assay type: cell-based, human; details: HOP-62, 10 μM
Description: as §1

NCI-H322M = experiment: as above; assay type: cell-based, human; details: 10 μM
Description: as §1

EKVX = experiment: as above; assay type: cell-based, human; details: 10 μM
Description: as §1

A549/ATCC = experiment: as above; assay type: cell-based, human; details: 10 μM
Description: as §1

HOP-92 = experiment: as above; assay type: cell-based, human; details: HOP-92, 10 μM
Description: as §1

NCI-H460 = experiment: as above; assay type: cell-based, human; details: NCI-H460, 10 μM
Description: as §1

NCI-H226 = experiment: as above; assay type: cell-based, human; details: NCI-H226, 10 μM
Description: as §1

NCI-H522 = experiment: as above; assay type: cell-based, human; details: NCI-H522, 10 μM
Description: as §1

SNB-19 = experiment: NCI 60 panel growth inhibition (SRB), CNS cancer; assay type: cell-based, human; details: SNB-19, 10 μM
Description: as §1

SF-268 = experiment: NCI 60 panel growth inhibition (SRB), CNS cancer; assay type: cell-based, human; details: SF-268, 10 μM
Description: as §1

SNB-75 = experiment: NCI 60 panel growth inhibition (SRB), CNS cancer; assay type: cell-based, human; details: SNB-75, 10 μM
Description: as §1

SF-295 = experiment: NCI 60 panel growth inhibition (SRB), CNS cancer; assay type: cell-based, human; details: SF-295, 10 μM
Description: as §1

U251 = experiment: NCI 60 panel growth inhibition (SRB), CNS cancer; assay type: cell-based, human; details: U251, 10 μM
Description: as §1

SF-539 = experiment: NCI 60 panel growth inhibition (SRB), CNS cancer; assay type: cell-based, human; details: SF-539, 10 μM
Description: as §1

BT-549 = experiment: NCI 60 panel growth inhibition (SRB), breast cancer; assay type: cell-based, human; details: BT-549, 10 μM
Description: as §1

MDA-MB-231/ATCC = experiment: as above; assay type: cell-based, human; details: 10 μM
Description: as §1

HS 578T = experiment: as above; assay type: cell-based, human; details: 10 μM
Description: as §1

MCF7 = experiment: as above; assay type: cell-based, human; details: MCF7, 10 μM
Description: as §1

MDA-MB-468 = experiment: as above; assay type: cell-based, human; details: MDA-MB-468, 10 μM
Description: as §1

T-47D = experiment: as above; assay type: cell-based, human; details: 10 μM
Description: as §1

OVCAR-8 = experiment: NCI 60 panel growth inhibition (SRB), ovarian cancer; assay type: cell-based, human; details: OVCAR-8, 10 μM
Description: as §1

OVCAR-3 = experiment: as above; assay type: cell-based, human; details: OVCAR-3, 10 μM
Description: as §1

NCI/ADR-RES = experiment: as above; assay type: cell-based, human; details: 10 μM
Description: as §1

IGROV1 = experiment: as above; assay type: cell-based, human; details: IGROV1, 10 μM
Description: as §1

OVCAR-5 = experiment: as above; assay type: cell-based, human; details: OVCAR-5, 10 μM
Description: as §1

SK-OV-3 = experiment: as above; assay type: cell-based, human; details: SK-OV-3, 10 μM
Description: as §1

OVCAR-4 = experiment: as above; assay type: cell-based, human; details: OVCAR-4, 10 μM
Description: as §1

| SMILES | GI% (HCT-116) [%] | GI% (KM12) [%] | GI% (SW-620) | GI% (HCC-2998) | melting point [°C] | Mean GI% [1] [%] | GI% (NCI-H23) [%] | GI% (HOP-62) | GI% (NCI-H322M) | GI% (EKVX) [%] | GI% (A549/ATCC) [%] | GI% (HOP-92) | GI% (NCI-H460) | GI% (NCI-H226) [%] | GI% (NCI-H522) | GI% (SNB-19) [%] | GI% (SF-268) [%] | GI% (SNB-75) | GI% (SF-295) [%] | GI% (U251) | also measured |
| --- | --- | --- | --- | --- | --- | --- | --- | --- | --- | --- | --- | --- | --- | --- | --- | --- | --- | --- | --- | --- | --- |
| Cc1ccc2c(c1)C(=NNC(=O)COc1ccccc1-c1nc3ccccc3s1)C(=O)N2 [Compound 9b, 2-(2-(Benzo[d]thiazol-2-yl)phenoxy)-N′-(5-methyl-2-oxoindolin-3-ylidene)acetohydrazide] | 53.56 | 18.69 | – (GI% < 5%) | 19.53% | 251 to 253 | 44.28 | 85.13 | 51.18% | 19.44% | 24.46 | 28.01 | 35.86% | 34.24% | 105.34 | 37.21% | 74.25 | 43.82 | 54.28% | 44.34 | 56.51% | GI% (SF-539): 76.88%; GI% (BT-549): 50.79%; GI% (MDA-MB-231/ATCC): 63.76%; GI% (HS 578T): 58.35%; GI% (MCF7): 64.25%; GI% (MDA-MB-468): 90.93%; GI% (T-47D): 48.54%; GI% (OVCAR-8): 57.37%; GI% (OVCAR-3): 79.13%; GI% (NCI/ADR-RES): 71.87%; GI% (IGROV1): 35.91%; GI% (OVCAR-5): 7.29%; GI% (SK-OV-3): 15.84%; GI% (OVCAR-4): 99.49% |
| COc1ccc2c(c1)C(=NNC(=O)COc1ccccc1-c1nc3ccccc3s1)C(=O)N2 [Compound 9c, 2-(2-(Benzo[d]thiazol-2-yl)phenoxy)-N′-(5-methoxy-2-oxoindolin-3-ylidene)acetohydrazide] | 18.17 | 15.67 | – (GI% < 5%) | – (GI% < 5%) | 240 to 242 | 12.24 | 17.94 | – (GI% < 5%) | – (GI% < 5%) | 25.93 | 25.86 | – (GI% < 5%) | 6.01% | 23.90 | – (GI% < 5%) | 7.69 | 13.85 | – (GI% < 5%) | 20.67 | – (GI% < 5%) | GI% (SF-539): 5.44%; GI% (BT-549): 18.71%; GI% (MDA-MB-231/ATCC): – (GI% < 5%); GI% (HS 578T): – (GI% < 5%); GI% (MCF7): 18.66%; GI% (MDA-MB-468): 29.51%; GI% (T-47D): 36.38%; GI% (OVCAR-8): 19.15%; GI% (OVCAR-3): – (GI% < 5%); GI% (NCI/ADR-RES): 25.58%; GI% (IGROV1): – (GI% < 5%); GI% (OVCAR-5): – (GI% < 5%); GI% (SK-OV-3): – (GI% < 5%); GI% (OVCAR-4): 32.22% |
| O=C(COc1ccccc1-c1nc2ccccc2s1)NN=C1C(=O)Nc2ccc(Br)cc21 [Compound 9f, 2-(2-(Benzo[d]thiazol-2-yl)phenoxy)-N′-(5-bromo-2-oxoindolin-3-ylidene)acetohydrazide] | 53.40 | 15.34 | – (GI% < 5%) | 11.62% | 261 to 263 | 43.78 | 40.56 | 74.09% | 17.70% | 19.72 | 29.34 | 51.76% | 18.32% | 106.99 | 51.70% | 81.08 | 45.84 | 84.86% | 32.61 | 86.92% | GI% (SF-539): 110.59%; GI% (BT-549): 86.84%; GI% (MDA-MB-231/ATCC): 55.33%; GI% (HS 578T): 75.23%; GI% (MCF7): 55.39%; GI% (MDA-MB-468): 63.10%; GI% (T-47D): 60.76%; GI% (OVCAR-8): 71.28%; GI% (OVCAR-3): 81.63%; GI% (NCI/ADR-RES): 49.76%; GI% (IGROV1): 42.62%; GI% (OVCAR-5): – (GI% < 5%); GI% (SK-OV-3): 17.03%; GI% (OVCAR-4): 90.58% |
| COc1cccc(-c2nc3ccccc3s2)c1OCC(=O)NN=C1C(=O)Nc2ccccc21 [Compound 9g, 2-(2-(Benzo[d]thiazol-2-yl)-6-methoxyphenoxy)-N′-(2-oxoindolin-3-ylidene)acetohydrazide] | 20.48 | 8.64 | – (GI% < 5%) | – (GI% < 5%) | 246 to 248 | 15.46 | 25.24 | – (GI% < 5%) | 10.24% | 29.56 | 16.44 | 34.60% | – (GI% < 5%) | 45.16 | 33.32% | 13.10 | 5.11 | – (GI% < 5%) | 29.36 | 8.36% | GI% (SF-539): 9.46%; GI% (BT-549): 25.83%; GI% (MDA-MB-231/ATCC): 18.32%; GI% (HS 578T): 16.30%; GI% (MCF7): 26.62%; GI% (MDA-MB-468): 50.47%; GI% (T-47D): 29.32%; GI% (OVCAR-8): 10.62%; GI% (OVCAR-3): – (GI% < 5%); GI% (NCI/ADR-RES): 28.45%; GI% (IGROV1): 7.95%; GI% (OVCAR-5): – (GI% < 5%); GI% (SK-OV-3): 8.22%; GI% (OVCAR-4): 27.14% |
